Source: patent US6737383B1, “Herbicidal oxadiazolidines” (priority 1999, dated 2004)

Key:
bamyardgrass = assay: Test B flood test barnyardgrass; type: in vivo, Echinochloa crus-galli
Method in brief: (§1)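 Plants were grown to the 2-leaf stage before treatment with test chemical, then held in a greenhouse for twelve to sixteen days. Injury was visually rated against untreated controls on a 0–10 scale, where 0 is no effect and 10 is complete control.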

wheat = assay: Test B pre/postemergence wheat; type: in vivo, Triticum aestivum
Method in brief: (§2)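 Test chemicals in a non-phytotoxic solvent mixture with surfactant were sprayed preemergence onto planted seeds and postemergence onto plants 2 to 18 cm tall (1- to 4-leaf stage). After twelve to sixteen days in a greenhouse, injury was visually rated against untreated controls from 0 (no effect) to 10 (complete control).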

purple nutsedge = assay: Test B pre/postemergence purple nutsedge; type: in vivo, Cyperus rotundus
Method in brief: as §2

rape = assay: Test B pre/postemergence rape; type: in vivo, Brassica napus
Method in brief: as §2

rice = assay: Test B flood test rice; type: in vivo, Oryza sativa
Method in brief: as §1

crabgrass = assay: Test B pre/postemergence crabgrass; type: in vivo, Digitaria sanguinalis
Method in brief: as §2

corn = assay: Test B pre/postemergence corn; type: in vivo, Zea mays
Method in brief: as §2

smallflower flatsedge = assay: Test B flood test smallflower flatsedge; type: in vivo, Cyperus difformis
Method in brief: as §1

bedstraw = assay: Test B pre/postemergence bedstraw; type: in vivo, Galium aparine
Method in brief: as §2

sugar beet = assay: Test B pre/postemergence sugar beet; type: in vivo, Beta vulgaris
Method in brief: as §2

soybean = assay: Test B pre/postemergence soybean; type: in vivo, Glycine max
Method in brief: as §2

duck salad = assay: Test B flood test duck salad; type: in vivo, Heteranthera limosa
Method in brief: as §1

cocklebur = assay: Test B pre/postemergence cocklebur; type: in vivo, Xanthium strumarium
Method in brief: as §2

wild oat = assay: Test B pre/postemergence wild oat; type: in vivo, Avena fatua
Method in brief: as §2

surinam grass = assay: Test B pre/postemergence surinam grass; type: in vivo, Brachiaria decumbens
Method in brief: as §2

blackgrass = assay: Test B pre/postemergence blackgrass; type: in vivo, Alopecurus myosuroides
Method in brief: as §2

velvetleaf = assay: Test B pre/postemergence velvetleaf; type: in vivo, Abutilon theophrasti
Method in brief: as §2

[1] = Rate 62 g/ha, headed Pre-emergence (flood test species), scale 0 to 10 (0 no effect, 10 complete control)
[2] = Rate 125 g/ha, Pre-emergence, flood test species, scale 0 to 10 where 0 is no effect and 10 is complete control
[3] = Rate 250 g/ha, Pre-emergence, flood-test species, scale 0 to 10, 0 is no effect, 10 is complete control
[4] = Rate 500 g/ha, Pre-emergence, flood test species, scale 0 to 10 (0 no effect, 10 complete control)
[5] = Preemergence, Rate 62 g/ha, scale of 0 to 10 where 0 is no effect and 10 is complete control
[6] = Preemergence, Rate 250 g/ha, scale of 0 to 10 where 0 is no effect and 10 is complete control
[7] = Preemergence, Rate 500 g/ha, scale of 0 to 10 where 0 is no effect and 10 is complete control
[8] = Rate 62 g/ha, Postemergence, scale of 0 to 10 where 0 is no effect and 10 is complete control
[9] = Rate 125 g/ha, Preemergence, scale of 0 to 10 where 0 is no effect and 10 is complete control
[10] = Rate 500 g/ha, Postemergence, scale 0 to 10, 0 no effect, 10 complete control
[11] = Rate 125 g/ha, Postemergence, scale 0 to 10

CC(C)N(C(=O)n1oc(=O)n(C2CC2)c1=O)c1ccccc1 [Compound 243]
7: Nutsedge plant response rating (purple nutsedge; [10]) | Crabgrass plant response rating (crabgrass; [5]) | Corn plant response rating (corn; [10]) | Sugarbeets plant response rating (sugar beet; [6]) | B. signalgrass plant response rating (surinam grass; [6]) | Blackgrass plant response rating (blackgrass; [8]) | Velvetleaf plant response rating (velvetleaf; [10])
5: Wheat plant response rating (wheat; [5]) | Rape plant response rating (rape; [9]) | Plant response rating (0 to 10; 0 is no effect, 10 is complete control), Corn (corn; Rate 250 g/ha, Postemergence) | Bedstraw plant response rating (bedstraw; [6]) | Plant response rating (0 to 10; 0 is no effect, 10 is complete control), Bedstraw (bedstraw; Rate 250 g/ha, Postemergence) | Bedstraw plant response rating (bedstraw; [10]) | Sugarbeets plant response rating (sugar beet; [10]) | Plant response rating, Cocklebur (cocklebur; [7]) | B. signalgrass plant response rating (surinam grass; [9])
6: Corn plant response rating (corn; [6]) | Wild oats plant response rating (wild oat; [9]) | Velvetleaf plant response rating (velvetleaf; [9])
0: Barnyardgrass plant response rating (bamyardgrass; [1]) | Barnyardgrass plant response rating (bamyardgrass; [2]) | Barnyardgrass plant response rating (bamyardgrass; [3]) | Barnyardgrass plant response rating (bamyardgrass; [4]) | Nutsedge plant response rating (purple nutsedge; [5]) | Nutsedge plant response rating (purple nutsedge; [6]) | Nutsedge plant response rating (purple nutsedge; [8]) | Nutsedge plant response rating (purple nutsedge; [9]) | Rape plant response rating (rape; [5]) | Rape plant response rating (rape; [8]) | Rice plant response rating (rice; [1]) | Rice plant response rating (rice; [2]) | Rice plant response rating (rice; [3]) | Rice plant response rating (rice; [4]) | Corn plant response rating (corn; [8]) | S. Flatsedge plant response rating (smallflower flatsedge; [1]) | S. Flatsedge plant response rating (smallflower flatsedge; [2]) | S. Flatsedge plant response rating (smallflower flatsedge; [3]) | S. Flatsedge plant response rating (smallflower flatsedge; [4]) | Bedstraw plant response rating (bedstraw; [5]) | Bedstraw plant response rating (bedstraw; [8]) | Bedstraw plant response rating (bedstraw; [9]) | Sugarbeets plant response rating (sugar beet; [8]) | Soybean plant response rating (soybean; [5]) | Soybean plant response rating (soybean; [9]) | Ducksalad plant response rating (duck salad; [1]) | Ducksalad plant response rating (duck salad; [2]) | Ducksalad plant response rating (duck salad; [3]) | Ducksalad plant response rating (duck salad; [4]) | Cocklebur plant response rating (cocklebur; [5]) | Cocklebur plant response rating (cocklebur; [6]) | Cocklebur plant response rating (cocklebur; [8]) | Cocklebur plant response rating (cocklebur; [9]) | Cocklebur plant response rating (cocklebur; [10]) | Wild oats plant response rating (wild oat; [8]) | B. signalgrass plant response rating (surinam grass; [8]) | Velvetleaf plant response rating (velvetleaf; [8])
4: Bedstraw plant response rating (bedstraw; [11]) | Plant response rating (0 to 10; 0 is no effect, 10 is complete control), Cocklebur (cocklebur; Rate 250 g/ha, Postemergence) | Wild oats plant response rating (wild oat; [10]) | B. signalgrass plant response rating (surinam grass; [5]) | B. signalgrass plant response rating (surinam grass; Rate 125 g/ha, Postemergence, scale 0 (no effect) to 10 (complete control)) | Velvetleaf plant response rating (velvetleaf; [5])
8: Wheat plant response rating (wheat; [6]) | Wheat plant response rating (wheat; [9]) | Wheat plant response rating (wheat; [10]) | Crabgrass plant response rating (crabgrass; [9]) | Soybean plant response rating (soybean; [6]) | Soybean plant response rating (soybean; [10]) | Blackgrass plant response rating (blackgrass; [5]) | Blackgrass plant response rating (blackgrass; [11])
3: Rape plant response rating (rape; [10]) | Crabgrass plant response rating (crabgrass; [8]) | Corn plant response rating (corn; [9]) | Sugarbeets plant response rating (sugar beet; [9]) | Soybean plant response rating (soybean; [8]) | Wild oats plant response rating (wild oat; [5])
9: Plant response rating, Wheat (wheat; [7]) | Rape plant response rating (rape; [6]) | Crabgrass plant response rating (crabgrass; [6]) | Plant response rating (0 to 10; 0 is no effect, 10 is complete control), Crabgrass (crabgrass; Rate 250 g/ha, Postemergence) | Crabgrass plant response rating (crabgrass; [10]) | Plant response rating, Corn (corn; [7]) | Plant response rating, Bedstraw (bedstraw; [7]) | Plant response rating, Soybean (soybean; [7]) | Wild oats plant response rating (wild oat; [6]) | Plant response rating, Wild oats (wild oat; [7]) | Plant response rating (0 to 10; 0 is no effect, 10 is complete control), B. signalgrass (surinam grass; Rate 250 g/ha, Postemergence) | B. signalgrass plant response rating (surinam grass; [10]) | Plant response rating (0 to 10; 0 is no effect, 10 is complete control), Blackgrass (blackgrass; Rate 250 g/ha, Postemergence) | Blackgrass plant response rating (blackgrass; [10])
2: Wheat plant response rating (wheat; [8]) | Plant response rating (0 to 10; 0 is no effect, 10 is complete control), Rape (rape; Rate 250 g/ha, Postemergence) | Corn plant response rating (corn; [5]) | Corn plant response rating (corn; [11]) | Sugarbeets plant response rating (sugar beet; [5]) | Cocklebur plant response rating (cocklebur; [11])
10: Plant response rating, Rape (rape; [7]) | Plant response rating, Crabgrass (crabgrass; [7]) | Plant response rating, Sugarbeets (sugar beet; [7]) | Plant response rating, B. signalgrass (surinam grass; [7]) | Blackgrass plant response rating (blackgrass; [6]) | Plant response rating, Blackgrass (blackgrass; [7]) | Blackgrass plant response rating (blackgrass; [9]) | Velvetleaf plant response rating (velvetleaf; [6]) | Plant response rating, Velvetleaf (velvetleaf; [7])
